{
  "source": "patent US11498943B2",
  "about": "“Amyloid inhibitory peptides” (TECHNISCHE UNIVERSITÄT MÜNCHEN, priority 2018, dated 2022)",
  "key": {"Aβ40 [1]": {"target": "T1, Aβ40 (Homo sapiens, UniProt P05067)", "T1 construct": "Aβ40 (TFA salt) was synthesized by Fmoc-based solid phase synthesis (SPPS); made in house; host or cells: chemical synthesis (Fmoc SPPS on Tentagel R PHB resin)", "T1 sequence (P05067 672-711)": "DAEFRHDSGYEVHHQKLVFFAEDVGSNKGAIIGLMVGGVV", "assay": "Fluorescence spectroscopic titration of Dac-Aβ40", "type": "binding", "details": "Dac-Aβ40 10 nM, pH 7.4", "description": "(§1) Fluorescence Spectroscopic Titration Studies\n(§2) A JASCO FP-6500 fluorescence spectrophotometer was used for the fluorescence spectroscopic titrations, which were performed by using previously described experimental protocols. […] App. […] Briefly, freshly made stock solutions of peptides and fluorescently labeled analogs in HFIP were used. Measurements were performed in 10 mM sodium phosphate buffer, pH 7.4 ([…]) at room temperature within 2-5 min following solution preparation. […] App. Kds were estimated using 1/1 binding models as previously described. […] KdDs are means (+SD) from three binding curves."}, "IAPP [2]": {"target": "T2, IAPP (Homo sapiens, UniProt P10997)", "T2 sequence (P10997 34-70 limits assumed)": "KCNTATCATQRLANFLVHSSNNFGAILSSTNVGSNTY", "assay": "Fluorescence spectroscopic titration of Fluos-IAPP", "type": "binding", "design": "IAPP was synthesized by SPPS and the Fmoc-strategy on RINK resin, subjected to air oxidation and purified by RP-HPLC; made in house; host or cells: chemical synthesis (Fmoc SPPS on RINK resin, air oxidation)", "details": "Fluos-IAPP 5 nM, pH 7.4", "description": "as §1, §2"}, "Aβ40 [3]": {"target": "T1, Aβ40", "assay": "MTT reduction assay: IC50 of inhibitory effect on cell-damaging amyloid self-assembly of Aβ40 (PC12 cells)", "type": "cell-based", "description": "(§3) Assessment of Cell Damage by MTT Reduction Assay\n(§4) Both cell lines were cultured and plated in 96-well plates as described. […] Following incubation with the cells for ˜20 h (37° C., humidified atmosphere with 5% CO2), the MTT reduction assay was used to assess cell damage/metabolic activity as previously described."}, "[4]": {"assay": "Peptide stability in human plasma (in vitro)", "type": "in vitro ADME", "details": "human blood plasma, 200 μM peptide, 37° C.", "description": "Peptide Stability in Human Plasma (In Vitro)\nPeptides were dissolved in human blood plasma (obtained from voluntary healthy donors) at a concentration of 200 μM and incubated at 37° C. for various time intervals. Following quenching (1/1) with aqueous trichloroacetic acid (10%), solutions were incubated on ice for 10 min, subjected to centrifugation to precipitate plasma proteins (20200 g; 4 min), and the supernatants were mixed (1/2) with a solution consisting of 80% HPLC buffer B and 20% HPLC buffer A (see below). To quantify intact peptide at different time points, solutions containing the supernatants were analyzed by RP-HPLC (detection at 214 nm) by using a Nucleosil 100 C18 column (Grace) (length 33 mm length, ID 8 mm, 7 μm particle size) with a flow rate of 2.0 ml/min and eluting buffers A, 0.058% (v/v) TFA in water, and B, 0.05% (v/v) TFA in 90% (v/v) CH3CN in water. The elution gradient was 10-90% B in A over 8 min; this step was followed by a 90-10% B in A over 3 min step to establish starting conditions. HPLC fractions were collected, lyophilized, and analyzed by MALDI-TOF-MS using a Bruker Daltonik MALDI-TOF MS instrument."}, "[5]": {"target": "recombinant human neprilysin (NEP) (Homo sapiens, UniProt P08473)", "sequence (P08473 whole entry)": "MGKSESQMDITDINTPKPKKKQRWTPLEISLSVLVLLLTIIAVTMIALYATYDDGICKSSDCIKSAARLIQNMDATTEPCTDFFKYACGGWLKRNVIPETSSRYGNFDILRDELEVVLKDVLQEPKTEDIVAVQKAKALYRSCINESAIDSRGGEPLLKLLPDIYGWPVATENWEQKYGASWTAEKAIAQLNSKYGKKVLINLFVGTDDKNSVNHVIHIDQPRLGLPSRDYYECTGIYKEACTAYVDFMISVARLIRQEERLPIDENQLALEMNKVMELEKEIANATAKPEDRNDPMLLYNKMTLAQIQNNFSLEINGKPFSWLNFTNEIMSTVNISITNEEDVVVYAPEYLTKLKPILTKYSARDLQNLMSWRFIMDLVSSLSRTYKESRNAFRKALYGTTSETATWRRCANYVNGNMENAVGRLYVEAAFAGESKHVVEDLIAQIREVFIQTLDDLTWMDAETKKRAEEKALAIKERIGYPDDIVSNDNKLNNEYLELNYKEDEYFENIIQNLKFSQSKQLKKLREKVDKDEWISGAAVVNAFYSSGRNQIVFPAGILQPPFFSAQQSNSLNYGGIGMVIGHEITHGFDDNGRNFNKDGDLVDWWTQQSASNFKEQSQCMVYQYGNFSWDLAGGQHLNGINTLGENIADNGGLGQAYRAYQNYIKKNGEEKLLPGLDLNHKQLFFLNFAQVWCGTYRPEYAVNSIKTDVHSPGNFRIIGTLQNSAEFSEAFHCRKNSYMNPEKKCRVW", "details": "peptide 100 μM, NEP 500 ng/ml, pH 6.5, 37° C.", "text": "Peptide Stability Toward Degradation by Human Neprilysin (In Vitro)\nAt indicated time points aliquots were quenched (1/1) with aqueous trichloroacetic acid (10%) and solutions were subjected to HPLC analysis and HPLC fractions were collected and analyzed by MALDI-TOF-MS as described under “Peptide stability in human plasma” (above)."}, "IAPP [6]": {"target": "T2, IAPP", "assay": "MTT reduction assay: IC50 of inhibitory effect on cell-damaging amyloid self-assembly of IAPP (RIN5fm cells)", "description": "as §3, §4"}, "hCMEC/D3 cells": {"tested_on": "hCMEC/D3 cells", "assay": "Human BBB Transwell permeability assay (in vitro)", "details": "hCMEC monolayer on Transwell; peptides 10 μM, Lucifer yellow 20 μM; mean (±SEM)", "experimental": "Human BBB Transwell Permeability Assay (In Vitro)\nHuman cerebral microvascular endothelial (hCMEC/D3) cells (Merck) were cultured in collagen type I-coated dishes in EndoGro-MV complete culture media kit supplemented with 1 ng/mL fibroblast growth factor-2 (FGF-2) (all reagents from Merck) (at 37° C. and 5% CO2). […] The Transwell permeability assay was then performed based on a previously established assay using 24-well plates (Sigma-Aldrich) containing 6.5 mm Transwell inserts (0.4 μm pore polycarbonate membrane (Corning)) as follows:\nhCMEC/D3 cells were grown in endothelial cell medium (ECM), containing EndoGro-MV complete media, 10% fetal bovine serum (FBS), 1% penicillin-streptamycine (P/S), and 1 ng/mL FGF-2 on the membranes of the Transwell inserts (2×10^5 cells/insert) (37° C. and 5% CO2) until full confluency was reached (normally after 5-7 days of culture). Confluency and BBB-type tightness was verified by TEER analysis; TEER values of 60-80 Ωcm^2 were obtained. The upper and lower chambers then were reconstituted with 200 μl and 800 μl, respectively, of ECM containing 2% FBS. The N-terminal fluorescein-labeled 12 amino acid-long peptide [sequence]-amide (Fluos-Trfb) known to readily cross the BBB via binding to the transferrin receptor, was used as a positive control for BBB permeability in this model.\nAs a reference point for the maximum fluorescence intensity, 100 μl of medium from the upper chamber at 0 h was also transferred and quantified. […] Lucifer yellow in the lower chamber was quantified by measuring the fluorescence at 530 nm (excitation at 485 nm). Relative permeability (FIG. 3f) was calculated by dividing the fluorescence value of the aliquot from the lower chamber at each time point by the fluorescence value of the 0 h-lower chamber aliquot.\nReported Papp values are means (±SEM) from at least 3 transport assays (each of them performed in triplicates)."}, "[7]": {"details": "Aβ40 500 nM, 72 h-aged solutions, PC12 cells, MTT reduction, means (±SD) from 3-4 titration assays, read-out: IC50 (±SD) (nM) Aβ40 inhibition"}, "[8]": {"details": "RP-HPLC and MALDI-TOF-MS, read-out: Half-life time in human plasma"}},
  "note": "Where two headings read alike, the source gives them in different places. Where a SMILES comes first, the peptide text is derived from it. Bridges are numbered along the chain shown (N, C = ends). [ ]: non-standard residue; d: D form. The star is where a group is joined. 5FAM = O=C1OC2(c3ccc(O)cc3Oc3cc(O)ccc32)c2ccc(C(=O)*)cc21; NMeI = CC[C@H](C)[C@H](NC)C(=O)O; Sar = CNCC(=O)O",
  "data": [
    {"compound": "CC[C@H](C)[C@H]1C(=O)N[C@@H](CC(C)C)C(=O)N[C@@H](CO)C(=O)N[C@H](C(N)=O)CSSC[C@H](N)C(=O)N[C@@H](C)C(=O)N[C@@H]([C@@H](C)O)C(=O)N[C@@H](CCC(N)=O)C(=O)N[C@@H](CCCNC(=N)N)C(=O)N[C@@H](CC(C)C)C(=O)N[C@@H](C)C(=O)N[C@@H](CC(N)=O)C(=O)N[C@@H](Cc2ccccc2)C(=O)N[C@@H](CC(C)C)C(=O)N[C@@H](C(C)C)C(=O)N[C@@H](Cc2c[nH]cn2)C(=O)N[C@@H](CCCNC(=N)N)C(=O)N[C@@H](CCCNC(=N)N)C(=O)N[C@@H](CCCNC(=N)N)C(=O)N[C@@H](CC(N)=O)C(=O)N[C@@H](Cc2ccccc2)C(=O)N(C)CC(=O)N[C@@H](C)C(=O)N1C", "note": "[Peptide 1a] (H-CATQRLANFLVHRRRNF[Sar]A[NMeI]LSC-NH2; disulfide 1-23; N-terminus assumed)", "values": [
      {"measurement": "app. Kd of interaction with N-terminal fluorescently labeled Aβ40", "setting": "Aβ40 [1]", "value": "mid-nanomolar"},
      {"measurement": "app. Kd of interaction with N-terminal fluorescently labeled IAPP", "setting": "IAPP [2]", "value": "mid-nanomolar"}
    ]},
    {"compound": "CSCC[C@H](NC(=O)[C@@H]1CCCN1C(=O)[C@@H]1CCCN1C(=O)[C@H](CCCNC(=N)N)NC(=O)[C@H](Cc1c[nH]cn1)NC(=O)[C@@H](NC(=O)c1ccc2c(c1)C(=O)OC21c2ccc(O)cc2Oc2cc(O)ccc21)[C@@H](C)O)C(=O)N[C@@H](Cc1c[nH]c2ccccc12)C(=O)N[C@@H](CO)C(=O)N1CCC[C@H]1C(=O)N[C@H](C(=O)N[C@@H](Cc1c[nH]c2ccccc12)C(=O)N1CCC[C@H]1C(N)=O)C(C)C", "note": "[Fluos-Trfb, reference compound] (5FAM-THRPPMWSPVWP-NH2; N-terminus assumed)", "values": [
      {"measurement": "Papp A→B", "value": 20.8, "unit": "×10⁻⁶ cm/s"}
    ]},
    {"compound": "CC[C@H](C)[C@H]1C(=O)NCC(=O)NCC(=O)N[C@@H](C(N)=O)CSSC[C@@H](NC(=O)c2ccc3c(c2)C(=O)OC32c3ccc(O)cc3Oc3cc(O)ccc32)C(=O)NCC(=O)N[C@H](Cc2ccccc2)C(=O)N[C@H](CC(C)C)C(=O)NCC(=O)NCC(=O)N[C@H](CCCNC(=N)N)C(=O)N[C@H](CCCNC(=N)N)C(=O)N[C@H](CCCNC(=N)N)C(=O)NCC(=O)N[C@H](Cc2ccccc2)C(=O)N(C)CC(=O)NCC(=O)N1C", "note": "[Fluos-2e] (5FAM-[dC]G[dF][dL]GG[dR][dR][dR]G[dF][Sar]G[NMeI]GG[dC]-NH2; disulfide 1-17; N-terminus assumed)", "values": [
      {"measurement": "Papp A→B", "value": 14.6, "unit": "×10⁻⁶ cm/s"}
    ]},
    {"compound": "CC[C@H](C)[C@H]1C(=O)NCC(=O)NCC(=O)N[C@H](C(N)=O)CSSC[C@H](N)C(=O)NCC(=O)N[C@H](Cc2ccccc2)C(=O)N[C@H](CC(C)C)C(=O)NCC(=O)NCC(=O)N[C@H](CCCNC(=N)N)C(=O)N[C@H](CCCNC(=N)N)C(=O)N[C@H](CCCNC(=N)N)C(=O)NCC(=O)N[C@H](Cc2ccccc2)C(=O)N(C)CC(=O)NCC(=O)N1C", "note": "[Peptide 2d] (H-CG[dF][dL]GG[dR][dR][dR]G[dF][Sar]G[NMeI]GGC-NH2; disulfide 1-17)", "values": [
      {"measurement": "IC50", "setting": "Aβ40 [3]; [7]", "value": 703, "unit": "nM"},
      {"measurement": "half-life at 200 μM", "setting": "[4]; [8]", "value": "1 to 2", "unit": "h"}
    ]},
    {"compound": "CC[C@H](C)[C@H]1C(=O)NCC(=O)NCC(=O)N[C@@H](C(N)=O)CSSC[C@@H](N)C(=O)NCC(=O)N[C@H](Cc2ccccc2)C(=O)N[C@H](CC(C)C)C(=O)NCC(=O)NCC(=O)N[C@H](CCCNC(=N)N)C(=O)N[C@H](CCCNC(=N)N)C(=O)N[C@H](CCCNC(=N)N)C(=O)NCC(=O)N[C@H](Cc2ccccc2)C(=O)N(C)CC(=O)NCC(=O)N1C", "note": "[Peptide 2e] (H-[dC]G[dF][dL]GG[dR][dR][dR]G[dF][Sar]G[NMeI]GG[dC]-NH2; disulfide 1-17)", "values": [
      {"measurement": "IC50", "setting": "Aβ40 [3]", "value": 542, "unit": "nM"},
      {"measurement": "Resistance to degradation by human neprilysin", "setting": "[5]", "value": "fully resistant to degradation"},
      {"measurement": "half-life at 200 μM", "setting": "[4]; [8]", "value": "> 11", "unit": "h"}
    ]},
    {"compound": "CC[C@H](C)[C@H]1C(=O)NCC(=O)NCC(=O)N[C@H](C(N)=O)CSSC[C@H](N)C(=O)NCC(=O)N[C@@H](Cc2ccccc2)C(=O)N[C@@H](CC(C)C)C(=O)NCC(=O)NCC(=O)N[C@H](CCCNC(=N)N)C(=O)N[C@H](CCCNC(=N)N)C(=O)N[C@H](CCCNC(=N)N)C(=O)NCC(=O)N[C@@H](Cc2ccccc2)C(=O)N(C)CC(=O)NCC(=O)N1C", "note": "[Peptide 2c] (H-CGFLGG[dR][dR][dR]GF[Sar]G[NMeI]GGC-NH2; disulfide 1-17)", "values": [
      {"measurement": "IC50", "setting": "Aβ40 [3]; [7]", "value": 204, "unit": "nM"},
      {"measurement": "half-life at 200 μM", "setting": "[4]; [8]", "value": "1 to 2", "unit": "h"}
    ]},
    {"compound": "CC[C@H](C)[C@H]1C(=O)N[C@@H](CC(C)C)C(=O)N[C@@H](CO)C(=O)N[C@H](C(N)=O)CSSC[C@H](N)C(=O)N[C@@H](CC(N)=O)C(=O)N[C@@H](Cc2ccccc2)C(=O)N[C@@H](CC(C)C)C(=O)N[C@@H](C(C)C)C(=O)N[C@@H](Cc2c[nH]cn2)C(=O)N[C@@H](CCCNC(=N)N)C(=O)N[C@@H](CCCNC(=N)N)C(=O)N[C@@H](CCCNC(=N)N)C(=O)N[C@@H](CC(N)=O)C(=O)N[C@@H](Cc2ccccc2)C(=O)N(C)CC(=O)N[C@@H](C)C(=O)N1C", "note": "[Peptide 2a] (H-CNFLVHRRRNF[Sar]A[NMeI]LSC-NH2; disulfide 1-17; N-terminus assumed)", "values": [
      {"measurement": "app. Kd of interaction with N-terminal fluorescently labeled Aβ40", "setting": "Aβ40 [1]", "value": "mid-nanomolar"},
      {"measurement": "app. Kd of interaction with N-terminal fluorescently labeled IAPP", "setting": "IAPP [2]", "value": "mid-nanomolar"},
      {"measurement": "Potency against IAPP cytotoxic self-assembly relative to 1a", "setting": "IAPP [6]; ratio of IC50s", "value": "~3", "unit": "fold"}
    ]},
    {"compound": "CC[C@H](C)[C@H]1C(=O)NCC(=O)NCC(=O)N[C@H](C(N)=O)CSSC[C@H](N)C(=O)NCC(=O)N[C@@H](Cc2ccccc2)C(=O)N[C@@H](CC(C)C)C(=O)NCC(=O)NCC(=O)N[C@@H](CCCNC(=N)N)C(=O)N[C@@H](CCCNC(=N)N)C(=O)N[C@@H](CCCNC(=N)N)C(=O)NCC(=O)N[C@@H](Cc2ccccc2)C(=O)N(C)CC(=O)NCC(=O)N1C", "note": "[Peptide 2b] (H-CGFLGGRRRGF[Sar]G[NMeI]GGC-NH2; disulfide 1-17)", "values": [
      {"measurement": "app. Kd of interaction with N-terminal fluorescently labeled Aβ40", "setting": "Aβ40 [1]", "value": "mid-nanomolar"},
      {"measurement": "IC50", "setting": "Aβ40 [3]", "value": 654, "unit": "nM"},
      {"measurement": "app. Kd of interaction with N-terminal fluorescently labeled IAPP", "setting": "IAPP [2]", "value": "mid-nanomolar"},
      {"measurement": "half-life at 200 μM", "setting": "[4]; read-out: t1/2 in human plasma", "value": "~0.75", "unit": "h"},
      {"measurement": "IC50", "setting": "IAPP [6]", "value": 426, "unit": "nM"}
    ]},
    {"compound": "Lucifer yellow", "values": [
      {"measurement": "Apparent permeability (Papp) at 2 h", "setting": "hCMEC/D3 cells", "value": "5.3×10^−6 (±2.7) cm/s"}
    ]}
  ]
}
